In patent US20100292132A1, “USE OF INSULIN C-PEPTIDE, ALONE OR IN COMBINATION WITH GLP-1, AS A THERAPEUTIC AGENT” (priority 2007, published 2010):

Tests used:
[1] = system: HIV-1IIIB; test: HIV-1 antiviral assay (CPE reduction, MTS) in CEM-SS cells; details: for antiviral activity of positive control compounds: HIV-1IIIB in CEM-SS cells; for reduction of cytopathic effect (CPE) in HIV-1 infected CEM-SS cells: 10 micrograms per ml, HIV-1IIIB, 6 days post-infection
[2] = system: hepatitis B virus (HBV) ayw strain; test: HBV replication assay in HepG2-2.2.15 cells (TaqMan PCR of secreted HBV DNA); format: cell-based; details: 10 micrograms per ml, six days
[3] = system: HCMV strain AD169; test: HCMV plaque formation assay in MRC-5 cells; details: for inhibition of HCMV plaque formation as compared to the virus control experiment: 10 micrograms per ml, MRC-5 cells, 7-10 days
[4] = system: murine spleen cells; test: Th1/Th2 cytokine profiling assay; format: cell-based, Balb/c mice; details: 10 micrograms per ml; Ovalbumin restimulation; 72 hours
From the text: The Balb/c mice (originated in 1923, it is a popular strain and is used in many different research disciplines. Also classified as an inbred from the production of 20 or more successive brother-sister matings, the Balb/c mouse is albino and small in size) were immunized on Days 1, 15, and 29 with Ovalbumin (Ovalbumin is the main protein found in egg white, commonly used to stimulate an immunological reaction in test animals) in PBS (5 micrograms/injection). On day 50, spleens of the mice were harvested (3 weeks after last boost with Ovalbumin). […] Thereafter, additional Ovalbumin was added to the cells at 10 micrograms/ml for in vitro restimulation of the cells. 72 hours later, cell supernatants were harvested and assayed using the Becton Dickinson Mouse Th1/Th2 Cytokine CBA Kit. This kit can be used to measure Interleukin-2 (IL-2), Interleukin-4 (IL-4), Interleukin-5 (IL-5), Interferon-γ(IFN-γ), and Tumor Necrosis Factor-α (TNF-α) protein levels in a single sample. The kit performance has been optimized for analysis of physiologically relevant concentrations (pg/ml levels) of specific cytokine proteins in tissue culture supernatants and serum samples.

[5] = system: Primary Human endothelial cells (HUVEC); test: Endothelial cell migration assay; format: cell-based; details: 10 micrograms per ml; 22 hours
Method: Primary Human endothelial cells (HUVEC) were seeded in insert chambers with 3 micrometer pore size of multi-transwell plate for 6 hours at 37° C. in Endothelial Cell Basal Medium (EBM) supplemented with 0.1% bovine serum albumin. Thereafter, designated concentration of testing peptides—10 micrograms per ml—was added in duplicate wells. The endothelia were allowed to migrate for 22 hours at 37° C., then, migrated cells were fixed and stained with Hoechst 33342 dye. Images of 3 fields per insert were taken and the number of migrated cells per field were quantified using the ImageProPlus software. Data were analyzed for the average number of the migrated cells and standard deviation of six data points for each treatment condition. Active test peptides against HUVEC migration was determined based on 50% inhibition of migrated cells as compared with the control. Statistic p values were computed using the Student's t-test.

[6] = system: HUVEC; test: Endothelial tube formation assay; format: cell-based, human; details: 10 micrograms per ml; 20 hours
Method: The endothelial tube formation assay is based on the ability of endothelial cells to form three-dimensional capillary-like tubular structures when cultured on a gel of basement membrane extract. The endothelial tube formation assay represents a powerful model for studying inhibition and induction of angiogenesis. Pre-labeled HUVEC with Calcein AM were seeded in a 96-well culture plate coated with extracellular metrix (Chemicon international Cat. ECM625) and treated with test peptides—10 micrograms per ml—in full growth medium. Positive control wes vehicle only. The endothelial cells were allowed to form tubes foe 20 hours and were then examined under an inverted fluorescent microscope. Duplicate wells for each treatment were photographed and quantitatevily analyzed for an average tubule length using image analysis software ImageProPlus. Raw data were expressed as average tubule lenghs in pixels ± standard deviation. Statistic p values were computed using the Student's t-test.

CC(C)(C)NC(=O)[C@@H]1CN(Cc2cccnc2)CCN1C[C@@H](O)C[C@@H](Cc1ccccc1)C(=O)N[C@H]1c2ccccc2C[C@H]1O [indinavir, reference compound]
antiviral activity of positive control compounds [1]: expected levels of antiviral activity

Cc1cn([C@H]2C[C@H](N=[N+]=[N-])[C@@H](CO)O2)c(=O)[nH]c1=O [AZT, reference compound]
antiviral activity of positive control compounds [1]: expected levels of antiviral activity

His-Ala-Glu-Gly-Thr-Phe-Thr-Ser-Asp-Val-Ser-Ser-Tyr-Leu-Glu-Gly-Gln-Ala-Ala-Lys-Glu-Phe-Ile-Ala-Trp-Leu-Val-Lys-Gly-Arg-NH2 [Peptide 2]
inhibition of HBV replication as compared to the virus control infection [2]: 37.2% | inhibition of HCMV plaque formation as compared to the virus control experiment [3]: 2.9% | change of the production of IL-5 [4]: did not significantly change | change of the production of TNF-alpha [4]: did not significantly change | decrease of the production of IFN-gamma [4]: 39.7% | decrease of the production of IL-2 [4]: 45.7% | decrease of the production of IL-4 [4]: 70.9% | inhibition of the migration of human endothelial cells [5]: 6% | inhibition of the tube formation of human endothelial cells [6]: 1% | reduction of cytopathic effect (CPE) in HIV-1 infected CEM-SS cells [1]: 61.1%

Glu-Ala-Glu-Asp-Leu-Gln-Val-Gly-Gln-Val-Glu-Leu-Gly-Gly-Gly-Pro-Gly-Ala-Gly-Ser-Leu-Gln-Pro-Leu-Ala-Leu-Glu-Gly-Ser-Leu-Gln-OH (EAEDLQVGQVELGGGPGAGSLQPLALEGSLQ; printed: Glu-Ala-Glu-Asp-Leu-Gln-Val-Gly-Gln-Val-Glu-Leu-Gly-Gly-Gly-Pro-Gly-Ala-Gly-Ser-Leu-Gln-Pro-Leu-Ala-Leu-Glu-Gly-Ser-Leu-Gln-) [Peptide 1]
inhibition of HBV replication as compared to the virus control infection [2]: 13.6% | inhibition of HCMV plaque formation as compared to the virus control experiment [3]: did not inhibit | change of the production of IFN-gamma [4]: did not significantly change | change of the production of IL-5 [4]: did not significantly change | change of the production of TNF-alpha [4]: did not significantly change | induction of the production of IL-2 [4]: 24.6% | induction of the production of IL-4 [4]: 34.7% | inhibition of the migration of human endothelial cells [5]: 29% | inhibition of the tube formation of human endothelial cells [6]: 19% | reduction of cytopathic effect (CPE) in HIV-1 infected CEM-SS cells [1]: 93.6%

Nc1nc(O)c2ncn(COC(CO)CO)c2n1 [Ganciclovir, reference compound]
antiviral activity of positive control compound ([3]; HCMV in MRC-5 cells): expected levels of antiviral activity
